In series [1] the target is T1, recombinant human MMP-12 catalytic domain (Homo sapiens, UniProt P39900).
T1 construct: recombinant human MMP-12 catalytic domain; purchased Enzo BM1L-SE138
Description: MMP-12 inhibitory assay (fluorogenic MMP substrate cleavage). The format is biochemical. The note with it: readout at 30 minutes. Here is the method:
The inhibitory effect of compounds on the rate of cleaving fluorogenic MMP substrate (Enzo, BML-P128) by recombinant human MMP-12 catalytic domain (Enzo, BM1L-SE138) was carried out by methods known in the art. Briefly, to each well of a 96-well black opaque plate, all the reagents were sequentially added by pipetting, and the final reaction contained 4 nM of recombinant human MMP-12 catalytic domain, 4 μM of fluorogenic MMP substrate, and various concentrations (0.15 nM to 10,000 nM) of tested compound dilutions in HEPES buffer (pH 7.5) containing 10 mM of CaCl2), 0.01% Brij® 35 (polyoxyethylene (23) lauryl ether), and 0.1 mg/ml of BSA.
The enzyme and compounds were pre-incubated on a shaker to mix in wells. After an hour of mixing, fluorogenic substrate was added to each well. Reaction without enzyme was used as a blank control in the plate. The plate was then fed into a plate reader to measure fluorescence intensity at Excitation/Emission wavelengths of 340 nm/440 nm every 10 mins for at least 1 hour at 37° C. The IC50 of each compound in MMP-12 inhibition was determined by using a readout obtained at time point 30 minutes.

The test system of series [2] is bleomycin (BLM) induced unilateral lung fibrosis model in Sprague Dawley (SD) rats. The experiment in a line: Bleomycin-induced SD rat unilateral lung fibrosis model for IPF. The format is in vivo. Here is the method:
The purpose of this study was to evaluate the therapeutic effect of FC-4 on bleomycin (BLM) induced unilateral lung fibrosis model in Sprague Dawley (SD) rats. Male SD rats (n=50) were randomly divided into the following groups: Sham group (n=10), Model group (n=10), FC-4 administered at 10 mg/kg/day group (n=10), FC-4 administered at 30 mg/kg/day group (n=10), and FC-4 administered at 100 mg/kg/day group (n=10). All test drugs were delivered orally starting from day 8 of modeling for 14 days. Saline solution was taken for sham and model groups once a day, and FC-4 twice a day for drug treatment groups. Rats were anesthetized and the trachea was exposed. Saline was administrated via direct intra-trachea injection in the sham group, and the other groups' animals received a BLM injection at a dose of 3 mg/kg in volume of 1.0 ml/kg. All animals were processed using a non invasive lung function test with EMMS Whole Body Plethysmography system at pre-modeling, and at days 3, 7, 11, 14, 18 and 21 of modeling. One day after the last drug delivery, the left lung of all animals was perfused with 10% formalin, and processed for pathology analysis.
Animals: Species and quality level: SD rats, SPF grade. Gender and number: male, 93. Purchasing body weight range: 260-280 g. […]

T1 sequence (P39900 106-263 limits assumed): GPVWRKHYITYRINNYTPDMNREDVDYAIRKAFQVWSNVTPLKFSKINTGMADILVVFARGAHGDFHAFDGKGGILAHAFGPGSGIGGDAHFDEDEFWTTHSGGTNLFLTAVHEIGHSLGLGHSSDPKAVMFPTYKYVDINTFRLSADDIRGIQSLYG

For `Cc1cccc(COc2ccc(Sc3ccoc3C3NC(=O)NC3=O)cc2)[n+]1[O-]` (stereo not drawn) [FC-5], the IC50 in series [1] was above 1000 nM.

As to `Cc1cc(COc2ccc(Sc3ccoc3C3NC(=O)NC3=O)cc2)ccn1` (stereo not drawn) [FC-4], the “Share of the Ashcraft score that was score 3” value in series [2] (all drug treatment groups) is around 80%. Moreover, the “Physical and behavior abnormality” value in series [2] (all tested rats during the experiment) is “no obviously physical and behavior abnormality change”.

In the case of `Cc1cc(NCc2ccc(Sc3ccoc3C3NC(=O)NC3=O)cc2)ccn1` (stereo not drawn) [FC-34], the IC50 in series [1] fell in the range of 100 to 1000 nM.

For `Cc1cc(CCc2ccc(Sc3ccoc3C3NC(=O)NC3=O)cc2)ccn1` (stereo not drawn) [FC-30], the IC50 in series [1] was in the range of 10 to 100 nM.

As to `Cc1cc(CNc2ccc(Sc3ccoc3C3NC(=O)NC3=O)cc2)ccn1` (stereo not drawn) [FC-31], the IC50 in series [1] was 10 to 100 nM.

A word on the IC50: it is the point on the concentration scale where inhibition reaches its midpoint.

The values above are taken from patent US12258335B1, “Matrix metalloproteinase (MMP) inhibitors and methods of use thereof” (Foresee Pharmaceuticals USA, Inc., priority 2018, dated 2025).
